Laboratory results published in the NIST ThermoML archive (doi:10.1007/s10765-009-0602-6).
± gives the expanded uncertainty stated by the source.

Assay: molar heat capacity at constant volume; xn = mol fraction of the nth substance listed
Conditions: x1 = 0.2607

SMILES: N [ammonia] + O
- molar heat capacity at constant volume (600.42 K, Fluid (supercritical or subcritical phases), Mass density=309.95 kg/m3, isochoric heat capacity): 99.2 ± 4 J/K/mol
- molar heat capacity at constant volume (600.43 K, Fluid (supercritical or subcritical phases), Mass density=301.94 kg/m3, isochoric heat capacity): 108.54 ± 4.6 J/K/mol
- molar heat capacity at constant volume (600.45 K, Fluid (supercritical or subcritical phases), Mass density=308.35 kg/m3, isochoric heat capacity): 94.94 ± 3.8 J/K/mol
- molar heat capacity at constant volume (600.48 K, Fluid (supercritical or subcritical phases), Mass density=299.79 kg/m3, isochoric heat capacity): 116.67 ± 4.8 J/K/mol
- molar heat capacity at constant volume (600.48 K, Liquid, Isochoric heat capacity): 116.67 ± 4.7 J/K/mol
- molar heat capacity at constant volume (600.5 K, Fluid (supercritical or subcritical phases), Mass density=299.79 kg/m3, isochoric heat capacity): 112.59 ± 4.6 J/K/mol
- molar heat capacity at constant volume (600.5 K, Fluid (supercritical or subcritical phases), Mass density=303.47 kg/m3, isochoric heat capacity): 94.55 ± 3.9 J/K/mol
- molar heat capacity at constant volume (600.51 K, Fluid (supercritical or subcritical phases), Mass density=301.94 kg/m3, isochoric heat capacity): 105.98 ± 4.3 J/K/mol
- molar heat capacity at constant volume (600.51 K, Fluid (supercritical or subcritical phases), Mass density=309.95 kg/m3, isochoric heat capacity): 100.78 ± 4 J/K/mol
- molar heat capacity at constant volume (600.59 K, Fluid (supercritical or subcritical phases), Mass density=299.79 kg/m3, isochoric heat capacity): 104.74 ± 4.2 J/K/mol
- molar heat capacity at constant volume (600.59 K, Fluid (supercritical or subcritical phases), Mass density=301.94 kg/m3, isochoric heat capacity): 99.68 ± 4 J/K/mol
- molar heat capacity at constant volume (600.59 K, Fluid (supercritical or subcritical phases), Mass density=303.47 kg/m3, isochoric heat capacity): 94.4 ± 3.9 J/K/mol
- molar heat capacity at constant volume (600.59 K, Fluid (supercritical or subcritical phases), Mass density=309.95 kg/m3, isochoric heat capacity): 100.97 ± 4 J/K/mol
- molar heat capacity at constant volume (600.62 K, Fluid (supercritical or subcritical phases), Mass density=308.35 kg/m3, isochoric heat capacity): 91.03 ± 3.6 J/K/mol
- molar heat capacity at constant volume (600.63 K, Fluid (supercritical or subcritical phases), Mass density=297.6 kg/m3, isochoric heat capacity): 114.9 ± 4.7 J/K/mol
- molar heat capacity at constant volume (600.63 K, Liquid, Isochoric heat capacity): 114.9 ± 4.6 J/K/mol
- molar heat capacity at constant volume (600.66 K, Fluid (supercritical or subcritical phases), Mass density=303.47 kg/m3, isochoric heat capacity): 95.13 ± 3.9 J/K/mol
- molar heat capacity at constant volume (600.67 K, Fluid (supercritical or subcritical phases), Mass density=299.79 kg/m3, isochoric heat capacity): 101.47 ± 4.2 J/K/mol
- molar heat capacity at constant volume (600.69 K, Fluid (supercritical or subcritical phases), Mass density=309.95 kg/m3, isochoric heat capacity): 95.49 ± 3.8 J/K/mol
- molar heat capacity at constant volume (600.72 K, Fluid (supercritical or subcritical phases), Mass density=297.6 kg/m3, isochoric heat capacity): 112.64 ± 4.5 J/K/mol
- molar heat capacity at constant volume (600.77 K, Fluid (supercritical or subcritical phases), Mass density=297.6 kg/m3, isochoric heat capacity): 109.73 ± 4.5 J/K/mol
- molar heat capacity at constant volume (600.77 K, Fluid (supercritical or subcritical phases), Mass density=299.79 kg/m3, isochoric heat capacity): 98.67 ± 4 J/K/mol
- molar heat capacity at constant volume (600.77 K, Fluid (supercritical or subcritical phases), Mass density=305.44 kg/m3, isochoric heat capacity): 101.79 ± 4.1 J/K/mol
- molar heat capacity at constant volume (600.8 K, Fluid (supercritical or subcritical phases), Mass density=308.35 kg/m3, isochoric heat capacity): 92.66 ± 3.7 J/K/mol
- molar heat capacity at constant volume (600.81 K, Fluid (supercritical or subcritical phases), Mass density=294.44 kg/m3, isochoric heat capacity): 113.83 ± 4.6 J/K/mol
- molar heat capacity at constant volume (600.81 K, Liquid, Isochoric heat capacity): 113.83 ± 4.5 J/K/mol
- molar heat capacity at constant volume (600.85 K, Fluid (supercritical or subcritical phases), Mass density=294.44 kg/m3, isochoric heat capacity): 111.38 ± 4.5 J/K/mol
- molar heat capacity at constant volume (600.85 K, Fluid (supercritical or subcritical phases), Mass density=297.6 kg/m3, isochoric heat capacity): 105.54 ± 4.2 J/K/mol
- molar heat capacity at constant volume (600.85 K, Fluid (supercritical or subcritical phases), Mass density=305.44 kg/m3, isochoric heat capacity): 96.13 ± 3.9 J/K/mol
- molar heat capacity at constant volume (600.86 K, Fluid (supercritical or subcritical phases), Mass density=299.79 kg/m3, isochoric heat capacity): 99.55 ± 4 J/K/mol
- molar heat capacity at constant volume (600.9 K, Fluid (supercritical or subcritical phases), Mass density=342.18 kg/m3, isochoric heat capacity): 88.83 ± 3.6 J/K/mol
- molar heat capacity at constant volume (600.93 K, Fluid (supercritical or subcritical phases), Mass density=292.97 kg/m3, isochoric heat capacity): 112.06 ± 4.6 J/K/mol
- molar heat capacity at constant volume (600.93 K, Liquid, Isochoric heat capacity): 112.06 ± 4.5 J/K/mol
- molar heat capacity at constant volume (600.94 K, Fluid (supercritical or subcritical phases), Mass density=292.97 kg/m3, isochoric heat capacity): 106.05 ± 4.3 J/K/mol
- molar heat capacity at constant volume (600.94 K, Fluid (supercritical or subcritical phases), Mass density=294.44 kg/m3, isochoric heat capacity): 103.91 ± 4.2 J/K/mol
- molar heat capacity at constant volume (600.94 K, Fluid (supercritical or subcritical phases), Mass density=297.6 kg/m3, isochoric heat capacity): 103.82 ± 4.2 J/K/mol
- molar heat capacity at constant volume (600.94 K, Fluid (supercritical or subcritical phases), Mass density=305.44 kg/m3, isochoric heat capacity): 99.89 ± 4 J/K/mol
- molar heat capacity at constant volume (600.94 K, Fluid (supercritical or subcritical phases), Mass density=320.33 kg/m3, isochoric heat capacity): 94.88 ± 3.8 J/K/mol
- molar heat capacity at constant volume (600.98 K, Fluid (supercritical or subcritical phases), Mass density=308.35 kg/m3, isochoric heat capacity): 89.18 ± 3.6 J/K/mol
- molar heat capacity at constant volume (601.02 K, Fluid (supercritical or subcritical phases), Mass density=305.44 kg/m3, isochoric heat capacity): 99.43 ± 4 J/K/mol
- molar heat capacity at constant volume (601.02 K, Fluid (supercritical or subcritical phases), Mass density=320.33 kg/m3, isochoric heat capacity): 95.95 ± 3.8 J/K/mol
- molar heat capacity at constant volume (601.02 K, Fluid (supercritical or subcritical phases), Mass density=342.18 kg/m3, isochoric heat capacity): 87.43 ± 3.5 J/K/mol
- molar heat capacity at constant volume (601.04 K, Fluid (supercritical or subcritical phases), Mass density=292.97 kg/m3, isochoric heat capacity): 101.74 ± 4.2 J/K/mol
- molar heat capacity at constant volume (601.05 K, Fluid (supercritical or subcritical phases), Mass density=291.16 kg/m3, isochoric heat capacity): 111.35 ± 4.6 J/K/mol
- molar heat capacity at constant volume (601.05 K, Liquid, Isochoric heat capacity): 111.35 ± 4.5 J/K/mol
- molar heat capacity at constant volume (601.08 K, Fluid (supercritical or subcritical phases), Mass density=291.16 kg/m3, isochoric heat capacity): 105.11 ± 4.2 J/K/mol
- molar heat capacity at constant volume (601.11 K, Fluid (supercritical or subcritical phases), Mass density=292.97 kg/m3, isochoric heat capacity): 94.42 ± 4.3 J/K/mol
- molar heat capacity at constant volume (601.11 K, Fluid (supercritical or subcritical phases), Mass density=301.94 kg/m3, isochoric heat capacity): 97.37 ± 3.9 J/K/mol
- molar heat capacity at constant volume (601.11 K, Fluid (supercritical or subcritical phases), Mass density=305.44 kg/m3, isochoric heat capacity): 95.1 ± 3.8 J/K/mol
- molar heat capacity at constant volume (601.11 K, Fluid (supercritical or subcritical phases), Mass density=320.33 kg/m3, isochoric heat capacity): 90.05 ± 3.6 J/K/mol
- molar heat capacity at constant volume (601.12 K, Fluid (supercritical or subcritical phases), Mass density=291.16 kg/m3, isochoric heat capacity): 93.41 ± 3.7 J/K/mol
- molar heat capacity at constant volume (601.16 K, Fluid (supercritical or subcritical phases), Mass density=188.05 kg/m3, isochoric heat capacity): 106.16 ± 4.8 J/K/mol
- molar heat capacity at constant volume (601.16 K, Liquid, Isochoric heat capacity): 102.61 ± 4.1 J/K/mol
- molar heat capacity at constant volume (601.19 K, Fluid (supercritical or subcritical phases), Mass density=301.94 kg/m3, isochoric heat capacity): 94.4 ± 3.8 J/K/mol
- molar heat capacity at constant volume (601.19 K, Fluid (supercritical or subcritical phases), Mass density=305.44 kg/m3, isochoric heat capacity): 94.51 ± 3.8 J/K/mol
- molar heat capacity at constant volume (601.19 K, Fluid (supercritical or subcritical phases), Mass density=320.33 kg/m3, isochoric heat capacity): 88.79 ± 3.6 J/K/mol
- molar heat capacity at constant volume (601.2 K, Fluid (supercritical or subcritical phases), Mass density=188.05 kg/m3, isochoric heat capacity): 93.94 ± 4.2 J/K/mol
- molar heat capacity at constant volume (601.21 K, Fluid (supercritical or subcritical phases), Mass density=291.16 kg/m3, isochoric heat capacity): 94.65 ± 3.9 J/K/mol
- molar heat capacity at constant volume (601.21 K, Fluid (supercritical or subcritical phases), Mass density=292.97 kg/m3, isochoric heat capacity): 99.73 ± 4.1 J/K/mol
- molar heat capacity at constant volume (601.24 K, Fluid (supercritical or subcritical phases), Mass density=342.18 kg/m3, isochoric heat capacity): 88.83 ± 3.6 J/K/mol
- molar heat capacity at constant volume (601.28 K, Fluid (supercritical or subcritical phases), Mass density=320.33 kg/m3, isochoric heat capacity): 91.03 ± 3.6 J/K/mol
- molar heat capacity at constant volume (601.29 K, Fluid (supercritical or subcritical phases), Mass density=301.94 kg/m3, isochoric heat capacity): 98.17 ± 3.9 J/K/mol
- molar heat capacity at constant volume (601.3 K, Fluid (supercritical or subcritical phases), Mass density=188.05 kg/m3, isochoric heat capacity): 86.48 ± 3.7 J/K/mol
- molar heat capacity at constant volume (601.34 K, Fluid (supercritical or subcritical phases), Mass density=285.71 kg/m3, isochoric heat capacity): 107.97 ± 4.5 J/K/mol
- molar heat capacity at constant volume (601.34 K, Fluid (supercritical or subcritical phases), Mass density=301.94 kg/m3, isochoric heat capacity): 95.7 ± 3.8 J/K/mol
- molar heat capacity at constant volume (601.34 K, Liquid, Isochoric heat capacity): 107.97 ± 4.3 J/K/mol
- molar heat capacity at constant volume (601.37 K, Fluid (supercritical or subcritical phases), Mass density=285.71 kg/m3, isochoric heat capacity): 99.59 ± 4 J/K/mol
- molar heat capacity at constant volume (601.37 K, Fluid (supercritical or subcritical phases), Mass density=294.44 kg/m3, isochoric heat capacity): 105.52 ± 4.2 J/K/mol
- molar heat capacity at constant volume (601.37 K, Fluid (supercritical or subcritical phases), Mass density=297.6 kg/m3, isochoric heat capacity): 102.84 ± 4.1 J/K/mol
- molar heat capacity at constant volume (601.37 K, Fluid (supercritical or subcritical phases), Mass density=342.18 kg/m3, isochoric heat capacity): 89.33 ± 3.6 J/K/mol
- molar heat capacity at constant volume (601.38 K, Fluid (supercritical or subcritical phases), Mass density=188.05 kg/m3, isochoric heat capacity): 66.72 ± 2.9 J/K/mol
- molar heat capacity at constant volume (601.39 K, Fluid (supercritical or subcritical phases), Mass density=291.16 kg/m3, isochoric heat capacity): 92.22 ± 3.8 J/K/mol
- molar heat capacity at constant volume (601.45 K, Fluid (supercritical or subcritical phases), Mass density=285.71 kg/m3, isochoric heat capacity): 94.44 ± 3.8 J/K/mol
- molar heat capacity at constant volume (601.45 K, Fluid (supercritical or subcritical phases), Mass density=294.44 kg/m3, isochoric heat capacity): 102.41 ± 4.1 J/K/mol
- molar heat capacity at constant volume (601.45 K, Fluid (supercritical or subcritical phases), Mass density=297.6 kg/m3, isochoric heat capacity): 99.66 ± 4 J/K/mol
- molar heat capacity at constant volume (601.45 K, Fluid (supercritical or subcritical phases), Mass density=301.94 kg/m3, isochoric heat capacity): 92.5 ± 3.7 J/K/mol
- molar heat capacity at constant volume (601.46 K, Fluid (supercritical or subcritical phases), Mass density=299.79 kg/m3, isochoric heat capacity): 97 ± 3.9 J/K/mol
- molar heat capacity at constant volume (601.47 K, Fluid (supercritical or subcritical phases), Mass density=320.33 kg/m3, isochoric heat capacity): 92.7 ± 3.7 J/K/mol
- molar heat capacity at constant volume (601.5 K, Fluid (supercritical or subcritical phases), Mass density=188.05 kg/m3, isochoric heat capacity): 72.1 ± 3.2 J/K/mol
- molar heat capacity at constant volume (601.53 K, Fluid (supercritical or subcritical phases), Mass density=299.79 kg/m3, isochoric heat capacity): 99 ± 4 J/K/mol
- molar heat capacity at constant volume (601.54 K, Fluid (supercritical or subcritical phases), Mass density=285.71 kg/m3, isochoric heat capacity): 89.22 ± 3.7 J/K/mol
- molar heat capacity at constant volume (601.54 K, Fluid (supercritical or subcritical phases), Mass density=297.6 kg/m3, isochoric heat capacity): 101.22 ± 4 J/K/mol
